Among the test systems are TK-10 renal; NCI-H226 lung; SW-620 colon; DU-145 prostate; SK-MEL-2 melanoma; U251 CNS; SF-539 CNS; UO-31 renal; SK-MEL-28 melanoma; MOLT-4 leukemia.
Experiment in all cases: growth of human tumour cells (NCI), 48 h

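Each compound was tested at five concentrations against cells in 96-well plates for 48 hours. TGI: concentration producing complete growth inhibition.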 Where only a bound is given, the exact number is not on record here.

TGI data for 13 compounds are collected here from PubChem BioAssay (NCI).

Regarding `C=C1C[C@@H]2O[C@H]3[C@H]4[C@@H](C[C@@H](C)[C@@H](OC(C)=O)[C@H]42)[C@@H](C)CO[C@@]3(C)[C@H](OC(=O)CCCCCCC)CC1=O`, the TGI in the assay with TK-10 renal came to 32.7 µM; in the assay with NCI-H226 lung, 42.9 µM; with SW-620 colon it was 29.8 µM; in the assay with DU-145 prostate it was 31.4 µM; in the assay on SK-MEL-2 melanoma it was 35 µM; in the assay with U251 CNS it was 32.5 µM. For the same compound, the TGI in the assay with SF-539 CNS was found to be 38 µM; with UO-31 renal, 29.5 µM; in the assay on SK-MEL-28 melanoma, 28.7 µM; with MOLT-4 leukemia it was 40.8 µM.

In the case of `CC1(C)C=C(/C=C2/N(S(=O)(=O)C(F)(F)F)C(/C=C3/N(S(=O)(=O)C(F)(F)F)C(C)(C#N)CC3(C)C)=CC2(C)C)N=C1/C=C1/CC(C)(C)C(=O)N1` (centres undefined), the TGI in the assay with TK-10 renal, in the assay on NCI-H226 lung, in the assay on SW-620 colon, with DU-145 prostate, with SK-MEL-2 melanoma and in the assay on U251 CNS was > 100 µM throughout. In addition, the TGI with SF-539 CNS was 84.5 µM; with UO-31 renal it was > 100 µM; in the assay on SK-MEL-28 melanoma, > 100 µM; with MOLT-4 leukemia, > 100 µM.

For `Clc1ccc(/C(=C/c2ccccc2)Cn2ccnc2)cc1`, the TGI in the assay with TK-10 renal was > 100 µM; in the assay on NCI-H226 lung, > 100 µM; in the assay with SW-620 colon, > 100 µM; in the assay with DU-145 prostate, > 100 µM; in the assay with SK-MEL-2 melanoma it was 40.8 µM; with U251 CNS, > 100 µM. In addition, the TGI in the assay with SF-539 CNS is 80.9 µM; in the assay on UO-31 renal, > 100 µM; in the assay on SK-MEL-28 melanoma, > 100 µM; with MOLT-4 leukemia, > 100 µM.

Take `C/C(=C\CSCC(N)C(=O)O)CC/C=C(\C)CNc1ccccc1` (centres undefined): the TGI in the assay on TK-10 renal, in the assay on NCI-H226 lung, in the assay with SW-620 colon, with DU-145 prostate, in the assay with SK-MEL-2 melanoma and in the assay on U251 CNS was > 100 µM in each case. For the same compound, the TGI with SF-539 CNS, in the assay on UO-31 renal, in the assay with SK-MEL-28 melanoma and in the assay on MOLT-4 leukemia was > 100 µM each time.

Regarding `CC1=C(C)SC(=C2Sc3c(n(C)c(=O)n(C)c3=O)S2)S1`, the TGI with TK-10 renal was 74.7 µM; with NCI-H226 lung it was 48.5 µM; in the assay on SW-620 colon, > 100 µM; in the assay with DU-145 prostate it was > 100 µM; with SK-MEL-2 melanoma, 79.1 µM; in the assay with U251 CNS, 18.9 µM. Further, the TGI was 26.8 µM in the assay with SF-539 CNS, > 100 µM with UO-31 renal, > 100 µM in the assay with SK-MEL-28 melanoma and > 100 µM with MOLT-4 leukemia.

As for `O=C1C=CC(=O)c2c(O)c(N3CCC[C@@H]3CO)c(Cl)c(O)c21`, the TGI stood at 3.3 µM in the assay on TK-10 renal; 3.16 µM in the assay with NCI-H226 lung; 3.42 µM with SW-620 colon; 3.28 µM in the assay on DU-145 prostate; 3.15 µM in the assay with SK-MEL-2 melanoma; 3.46 µM in the assay on U251 CNS. The TGI in the assay on SF-539 CNS is 3.42 µM; with UO-31 renal it was 3.49 µM; in the assay on SK-MEL-28 melanoma, 3.24 µM; in the assay on MOLT-4 leukemia, 1.14 µM.

Take `C[C@H]1[C@H](C)CC[C@]2(C(=O)OC3OC(CO)C(O)C(O)C3O)CC[C@]3(C)C(=CC[C@@H]4[C@@]5(C)C[C@@H](O)[C@@H]6OC(=O)c7cc(O)c(O)c(O)c7-c7c(cc(O)c(O)c7O)C(=O)OC[C@@]6(CO)[C@@H]5CC[C@]43C)[C@H]12` (some centres undefined): the TGI in the assay with TK-10 renal is > 100 µM; in the assay on NCI-H226 lung it was > 100 µM; in the assay on SW-620 colon, > 67 µM; in the assay with DU-145 prostate it was > 100 µM; in the assay on SK-MEL-2 melanoma, > 100 µM; with U251 CNS it was > 100 µM. Besides, the TGI in the assay with SF-539 CNS, in the assay with UO-31 renal, in the assay on SK-MEL-28 melanoma and in the assay on MOLT-4 leukemia was > 100 µM each time.

With `CCOC(=O)/C=C/CCC(C)(C)COC(C)=O`, the TGI with TK-10 renal, with NCI-H226 lung, with SW-620 colon, in the assay with DU-145 prostate, with SK-MEL-2 melanoma and with U251 CNS was > 10 µM throughout. In addition, the TGI in the assay with SF-539 CNS, in the assay on UO-31 renal, in the assay on SK-MEL-28 melanoma and in the assay on MOLT-4 leukemia was > 10 µM in each case.

With `NC(=O)c1ccc[n+](C2=C([O-])c3ccccc3C(=O)/C2=N\S(=O)(=O)c2ccccc2)c1`, the TGI in the assay with TK-10 renal is > 100 µM; with NCI-H226 lung, 28.9 µM; in the assay on SW-620 colon it was 30.7 µM; with DU-145 prostate, 34 µM; with SK-MEL-2 melanoma, 25.7 µM; in the assay with U251 CNS, 29 µM. In addition, the TGI with SF-539 CNS amounted to 32.2 µM; with UO-31 renal, 27.9 µM; in the assay with SK-MEL-28 melanoma, 30.2 µM; in the assay with MOLT-4 leukemia, 81.5 µM.

Consider `C[As+](C)(c1ccc(Br)c([N+](=O)[O-])c1)c1ccc(Br)c([N+](=O)[O-])c1.O=[N+]([O-])O`, for which the TGI in the assay with TK-10 renal, in the assay on NCI-H226 lung, in the assay on SW-620 colon, with DU-145 prostate, in the assay with SK-MEL-2 melanoma and in the assay with U251 CNS was > 100 µM each time. Moreover, the TGI with SF-539 CNS was > 100 µM; in the assay with UO-31 renal it was > 100 µM; with SK-MEL-28 melanoma, 76.8 µM; with MOLT-4 leukemia, > 100 µM.

`N#CCCN(CCC#N)c1ccc(C(N=Nc2ccccc2)=Nc2ccc(F)cc2)cc1`: the TGI in the assay on TK-10 renal, with NCI-H226 lung, in the assay with SW-620 colon, with DU-145 prostate, with SK-MEL-2 melanoma and in the assay with U251 CNS was > 100 µM in each case. The TGI in the assay with SF-539 CNS, in the assay with UO-31 renal, in the assay with SK-MEL-28 melanoma and with MOLT-4 leukemia was > 100 µM throughout.

`Cc1cccc2c1CC(Cc1ccccc1C(=O)O)C2=O` (centres undefined): the TGI in the assay with TK-10 renal, with NCI-H226 lung, in the assay with SW-620 colon, with DU-145 prostate, with SK-MEL-2 melanoma and with U251 CNS was > 100 µM in each case. Further, the TGI with SF-539 CNS, with UO-31 renal, in the assay with SK-MEL-28 melanoma and in the assay on MOLT-4 leukemia was > 100 µM in each case.

On to `Cc1cc(S(=O)(=O)N=C2Nc3cccc4cccc(c34)N2)c(S)cc1Cl`, for which the TGI in the assay on NCI-H226 lung, with SW-620 colon, in the assay on DU-145 prostate, with SK-MEL-2 melanoma, in the assay on U251 CNS and with SF-539 CNS was > 100 µM each time. In addition, the TGI in the assay on UO-31 renal, in the assay on SK-MEL-28 melanoma and in the assay with MOLT-4 leukemia was > 100 µM throughout.
